Assay [1] has as its system IICR (IP3 induced calcium release) in CHO cells. Kind of assay: Assay of IICR (IP3 induced calcium release)-inhibiting action. The conditions noted are these: CHO cells, 10 μM ATP. It counts as cell-based, Chinese hamster. In a few lines: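 CHO cell medium replaced with calcium-containing BSS; compound added 1 min later, then 10 μM ATP after a further 2 min. Percent inhibition of the ATP-evoked rise in intracellular calcium determined at each compound concentration.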

For assay [2], the system named is SOCE (store operated calcium entry) in CHO cells. Briefly: Assay of SOCE (store operated calcium entry)-inhibiting action. It counts as cell-based, Chinese hamster. The conditions noted are these: CHO cells, thapsigargin. The essentials: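 CHO cells in calcium-free BSS received compound, then 1 μM thapsigargin 2 min later to deplete stores; after 9 min, 2 mM calcium chloride (final) added. Percent inhibition of the rise in intracellular calcium determined at various compound concentrations.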

The target of a further assay is TGase (Cavia porcellus, UniProt P08587). It counts as biochemical. The conditions noted are these: level with DMSO control designated as 100.

Read-outs that look alike come from different tables or passages of the source.

As for `O=C(CCNCCSSCCNCCC(=O)c1ccco1)c1ccco1` [Example 372], the “IICR level (percentage of inhibition)” value in assay [1] (test compound 10 μmol) is given as 0%; in assay [1] (test compound 30 μmol), 54%; in assay [1] (test compound 100 μmol), 58%. Also, the “SOCE level (percentage of inhibition)” value in assay [2] (test compound 10 μmol) was 0%; in assay [2] (test compound 30 μmol) it was 0%; in assay [2] (test compound 100 μmol), 15%. The TG level at TGase (test compound 3 μmol) was 13; on TGase (test compound 30 μmol) it was −1.5.

Consider `O=C(CCNCCSSCCNCCC(=O)c1ccsc1)c1ccsc1` [Example 380], for which the “IICR level (percentage of inhibition)” value in assay [1] (test compound 10 μmol) is reported as 10%; in assay [1] (test compound 30 μmol) it was 76%; in assay [1] (test compound 100 μmol), 81%. Further, the entries for the “SOCE level (percentage of inhibition)” value in assay [2] (test compound 10 μmol), in assay [2] (test compound 30 μmol) and in assay [2] (test compound 100 μmol) were 4%, 31% and 70%, respectively. For the same compound, the results for the TG level at TGase (test compound 3 μmol) and at TGase (test compound 30 μmol) were 25 and 4.2, respectively.

Consider “N,N-bis(2-(4-bromobenzoyl)ethyl)cystinemethylester [Example 392]”, for which the results for the “IICR level (percentage of inhibition)” value in assay [1] (test compound 10 μmol), in assay [1] (test compound 30 μmol) and in assay [1] (test compound 100 μmol) were 58%, 61% and 76%, respectively. For the same compound, the “SOCE level (percentage of inhibition)” value in assay [2] (test compound 10 μmol) came out at 20%; in assay [2] (test compound 30 μmol) it was 40%; in assay [2] (test compound 100 μmol) it was 50%. Also, the TG level on TGase (test compound 3 μmol) was 25; on TGase (test compound 10 μmol), 3.7; on TGase (test compound 30 μmol), 2.3.

In the case of “N,N-bis(2-(4-pyridinoyl)ethyl)cystinemethylester [Example 393]”, the “IICR level (percentage of inhibition)” value in assay [1] (test compound 10 μmol) worked out at 44%; in assay [1] (test compound 30 μmol), 42%; in assay [1] (test compound 100 μmol), 21%. For the same compound, the “SOCE level (percentage of inhibition)” value in assay [2] (test compound 10 μmol) turned out to be 20%; in assay [2] (test compound 30 μmol), 40%; in assay [2] (test compound 100 μmol), 50%. Further, the TG level at TGase (test compound 3 μmol) worked out at 54; on TGase (test compound 10 μmol) it was 16; at TGase (test compound 30 μmol) it was 3.5.

“N,N-bis(2-(5-bromo-2-thiophenoyl)ethyl)cystinemethylester [Example 386]”: the “IICR level (percentage of inhibition)” value in assay [1] (test compound 10 μmol) is listed as 44%; in assay [1] (test compound 30 μmol) it was 72%; in assay [1] (test compound 100 μmol) it was 77%. Besides, the “SOCE level (percentage of inhibition)” value in assay [2] (test compound 10 μmol) was determined as 20%; in assay [2] (test compound 30 μmol), 40%; in assay [2] (test compound 100 μmol) it was 50%. Further, the TG level at TGase (test compound 3 μmol) came to 4.6; at TGase (test compound 10 μmol), 2.9; at TGase (test compound 30 μmol), 14.

Turning to “N,N-bis(2-naphthoylethyl)cystinemethylester [Example 391]”, the “IICR level (percentage of inhibition)” value in assay [1] (test compound 10 μmol) is listed as 6%; in assay [1] (test compound 30 μmol) it was 37%; in assay [1] (test compound 100 μmol) it was 41%. The “SOCE level (percentage of inhibition)” value in assay [2] (test compound 10 μmol) turned out to be 20%; in assay [2] (test compound 30 μmol), 40%; in assay [2] (test compound 100 μmol) it was 50%. For the same compound, the TG level at TGase (test compound 3 μmol) came out at 33; at TGase (test compound 10 μmol) it was 6.4; at TGase (test compound 30 μmol), 29.

For “N,N-bis(2-thiophenoylethyl)cystinemethylester [Example 389]”, the results for the “IICR level (percentage of inhibition)” value in assay [1] (test compound 10 μmol), in assay [1] (test compound 30 μmol) and in assay [1] (test compound 100 μmol) were 22%, 45% and 54%, respectively. Besides, the “SOCE level (percentage of inhibition)” value in assay [2] (test compound 10 μmol) stood at 20%; in assay [2] (test compound 30 μmol), 40%; in assay [2] (test compound 100 μmol) it was 50%. Also, the TG level is reported as 9.7 on TGase (test compound 3 μmol), 2.7 on TGase (test compound 10 μmol) and −3.8 at TGase (test compound 30 μmol).

(Values after patent US8937091B2 (Japan Science and Technology Agency, priority 2009, dated 2015).)
